Target: T1, STING (Homo sapiens, UniProt Q86WV6, G230A/H232R/R293Q/R71H)
T1 construct: host or cells: THP1-Dual KO-IFNAR2 cells
Assay: STING reporter assay: luciferase reporter activity in THP1-Dual KO-IFNAR2 cells stimulated with 2'3'cGAMP
Format: cell-based
Details: 2′3′cGAMP 15 μM final, 24h, read-out: hSTING: EC50
How it was run: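 THP1-Dual KO-IFNAR2 cells (2×10E6 cells/mL) incubated with compounds at 0.0017-100 μM final plus Lipofectamine-transfected 2′3′cGAMP (15 μM final), 24 h at 37 °C, 5% CO2. Luciferase in supernatant read by QUANTI-Luc luminescence; EC50 derived.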

T1 sequence (Q86WV6 whole entry R71H/G230A/H232R/R293Q): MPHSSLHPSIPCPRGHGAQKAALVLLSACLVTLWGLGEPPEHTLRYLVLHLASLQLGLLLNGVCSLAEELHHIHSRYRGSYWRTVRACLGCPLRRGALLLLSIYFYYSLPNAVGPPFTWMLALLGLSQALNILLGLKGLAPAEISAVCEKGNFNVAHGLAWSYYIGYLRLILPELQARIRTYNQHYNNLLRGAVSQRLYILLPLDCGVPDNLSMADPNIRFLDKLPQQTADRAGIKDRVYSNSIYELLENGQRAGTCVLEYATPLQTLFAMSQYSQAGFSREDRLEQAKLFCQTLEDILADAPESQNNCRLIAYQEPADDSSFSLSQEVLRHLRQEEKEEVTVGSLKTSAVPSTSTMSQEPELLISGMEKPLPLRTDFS

SMILES | EC50 [µM]
O=C(Nc1c[nH]c2cc(F)c(F)cc12)C(=O)NC1CCC(Oc2ccc(C(F)(F)F)cn2)CC1 (stereo not shown) [Compound 255] | 5 to 100
O=C(Nc1c[nH]c2cc(F)c(F)cc12)C(=O)NC1CCN(Cc2ccccc2)C2(CCCCC2)C1 (stereo not shown) [Compound 256] | 1 to 5
O=C(Nc1ccc(-n2cncn2)c(Cl)c1)C(=O)Nc1c[nH]c2cc(F)c(F)cc12 [Compound 265, N′-[3-chloro-4-(1H-1,2,4-triazol-1-yl)phenyl]-N-(5,6-difluoro-1H-indol-3-yl)ethanediamide] | 1 to 5
CC(C)(C)OC(=O)N1CCC2(CC1)CC(NC(=O)C(=O)Nc1c[nH]c3cc(F)c(F)cc13)CO2 (stereo not shown) [Compound 271, tert-butyl 3-{[(5,6-difluoro-1H-indol-3-yl)carbamoyl] formamido}-1-oxa-8-azaspiro[4.5]decane-8-carboxylate] | 1 to 5
O=C(Nc1cnc2c(c1)CCC2)C(=O)Nc1c[nH]c2cc(F)c(F)cc12 [Compound 274, N′-{5H,6H,7H-cyclopenta[b]pyridin-3-yl}-N-(5,6-difluoro-1H-indol-3-yl)ethanediamide] | 1 to 5
O=C(NCC(c1ccccc1)n1ccnc1)C(=O)Nc1c[nH]c2cc(F)c(F)cc12 (stereo not shown) [Compound 277, N-(5,6-difluoro-1H-indol-3-yl)-N′-[2-(1H-imidazol-1-yl)-2-phenylethyl] ethanediamide] | 5 to 100
O=C(Nc1c[nH]c2cc(F)c(F)cc12)C(=O)NC1CCOC2(CCCC2)C1 (stereo not shown) [Compound 278] | 1 to 5
CC(CN(C)c1ccccn1)NC(=O)C(=O)Nc1c[nH]c2cc(F)c(F)cc12 (stereo not shown) [Compound 284] | 1 to 5
COc1ncc(NC(=O)C(=O)Nc2c[nH]c3cc(F)c(F)cc23)cc1C(F)(F)F [Compound 287, N-(5,6-difluoro-1H-indol-3-yl)-N′-[6-methoxy-5-(trifluoromethyl)pyridin-3-yl]ethanediamide] | 1 to 5
O=C(NCCOc1cccnc1)C(=O)Nc1c[nH]c2cc(F)c(F)cc12 [Compound 290, N-(5,6-difluoro-1H-indol-3-yl)-N′-[2-(pyridin-3-yloxy)ethyl] ethanediamide] | 5 to 100
COc1cc(NC(=O)C(=O)Nc2c[nH]c3cc(F)c(F)cc23)ccc1N1CCCC1 [Compound 293, N-(5,6-difluoro-1H-indol-3-yl)-N′-[3-methoxy-4-(pyrrolidin-1-yl)phenyl] ethanediamide] | 0.2 to 1
O=C(NCCN1CCCc2ccccc21)C(=O)Nc1c[nH]c2cc(F)c(F)cc12 [Compound 294, N-(5,6-difluoro-1H-indol-3-yl)-N′-[2-(1,2,3,4-tetrahydroquinolin-1-yl)ethyl]ethanediamide] | 0.2 to 1
C#Cc1cc(NC(=O)C(=O)Nc2c[nH]c3cc(F)c(F)cc23)ccc1Cl [Compound 295, N′-(4-chloro-3-ethynylphenyl)-N-(5,6-difluoro-1H-indol-3-yl)ethanediamide] | 0.2 to 1
O=C(Nc1cnc2sccc2c1)C(=O)Nc1c[nH]c2cc(F)c(F)cc12 [Compound 296, N′-(5,6-difluoro-1H-indol-3-yl)-N-{thieno[2,3-b]pyridin-5-yl}ethanediamide] | 0.2 to 1
CC(C)(C)OC(=O)N1CCC2(CCC(NC(=O)C(=O)Nc3c[nH]c4cc(F)c(F)cc34)CC2)CC1 [Compound 297, tert-butyl 9-{[(5,6-difluoro-1H-indol-3-yl)carbamoyl] formamido}-3-azaspiro[5.5]undecane-3-carboxylate] | 0.2 to 1
C[C@H](NC(=O)C(=O)Nc1c[nH]c2cc(F)c(F)cc12)c1ccc(C(F)(F)F)cn1 [Compound 298, N-(5,6-difluoro-1H-indol-3-yl)-N′-[(1S)-1-[5-(trifluoromethyl)pyridin-2-yl]ethyl]ethanediamide] | 0.2 to 1
COc1ccc(CCNC(=O)C(=O)Nc2c[nH]c3cc(F)c(F)cc23)cn1 [Compound 299, N-(5,6-difluoro-1H-indol-3-yl)-N′-[2-(6-methoxypyridin-3-yl)ethyl]ethanediamide] | 1 to 5
O=C(Nc1c[nH]c2cc(F)c(F)cc12)C(=O)NC1CCC(O)(C(F)(F)F)CC1 (stereo not shown) [Compound 300, N-(5,6-difluoro-1H-indol-3-yl)-N′-[4-hydroxy-4-(trifluoromethyl)cyclohexyl] ethanediamide] | 5 to 100

Continued, values first:

EC50 [µM] | SMILES
0.2 to 1 | O=C(Nc1c[nH]c2cc(F)c(F)cc12)C(=O)N1CCN(Cc2ccc(C(F)(F)F)cc2)CC1 [Compound 253]
0.2 to 1 | Cc1ccccc1N1C2CCC1CC(NC(=O)C(=O)Nc1c[nH]c3cc(F)c(F)cc13)C2 (stereo not shown) [Compound 254]
0.2 to 1 | O=C(NCC1COc2ccccc2O1)C(=O)Nc1c[nH]c2cc(F)c(F)cc12 (stereo not shown) [Compound 261, N-(5,6-difluoro-1H-indol-3-yl)-N′-[(2,3-dihydro-1,4-benzodioxin-2-yl)methyl] ethanediamide]
0.2 to 1 | O=C(Nc1ccc2c(cnn2Cc2cccc(F)c2)c1)C(=O)Nc1c[nH]c2cc(F)c(F)cc12 [Compound 262, N-(5,6-difluoro-1H-indol-3-yl)-N′-{1-[(3-fluorophenyl)methyl]-1H-indazol-5-yl}ethanediamide]
0.2 to 1 | O=C(Nc1ccc(C(F)(F)F)cc1)C(=O)Nc1c[nH]c2ccc(I)cc12 [Compound 263]
0.2 to 1 | O=C(Nc1c[nH]c2cc(F)c(F)cc12)C(=O)N[C@H]1CCN(c2ccc(C(F)(F)F)cn2)C1 [Compound 264, (S)-N-(5,6-difluoro-1H-indol-3-yl)-N′-(1-(5-(trifluoromethyl)pyridin-2-yl)pyrrolidin-3-yl)oxalamide]
0.2 to 1 | CN1CCOc2cc(NC(=O)C(=O)Nc3c[nH]c4cc(F)c(F)cc34)ccc21 [Compound 266, N-(5,6-difluoro-1H-indol-3-yl)-N′-(4-methyl-3,4-dihydro-2H-1,4-benzoxazin-7-yl)ethanediamide]
0.2 to 1 | CC(C)(C)OC(=O)N1CC2CC(NC(=O)C(=O)Nc3c[nH]c4cc(F)c(F)cc34)CC2C1 (stereo not shown) [Compound 267, tert-butyl 5-{[(5,6-difluoro-1H-indol-3-yl)carbamoyl] formamido}-octahydrocyclopenta[c] pyrrole-2-carboxylate]
0.2 to 1 | O=C(Nc1ccc2c(c1)CCCC2=O)C(=O)Nc1c[nH]c2cc(F)c(F)cc12 [Compound 268, N-(5,6-difluoro-1H-indol-3-yl)-N′-(5-oxo-5,6,7,8-tetrahydro-naphthalen-2-yl)ethanediamide]
0.2 to 1 | O=C(NCCc1ccc(C(F)(F)F)cn1)C(=O)Nc1c[nH]c2cc(F)c(F)cc12 [Compound 269, N-(5,6-difluoro-1H-indol-3-yl)-N′-{2-[5-(trifluoromethyl)pyridin-2-yl]ethyl}ethanediamide]
0.2 to 1 | N#Cc1ccc(OC2CCC(NC(=O)C(=O)Nc3c[nH]c4cc(F)c(F)cc34)CC2)cc1 (stereo not shown) [Compound 270, N′-[4-(4-cyanophenoxy)cyclohexyl]-N-(5,6-difluoro-1H-indol-3-yl)ethanediamide]
0.2 to 1 | COc1ccc(Oc2ccc(NC(=O)C(=O)Nc3c[nH]c4cc(F)c(F)cc34)cc2C)cn1 [Compound 272, N-(5,6-difluoro-1H-indol-3-yl)-N′-{4-[(6-methoxypyridin-3-yl)oxy]-3-methylphenyl} ethanediamide]
0.2 to 1 | O=C(Nc1ccc2c(c1)oc(=O)n2Cc1ccccc1)C(=O)Nc1c[nH]c2cc(F)c(F)cc12 [Compound 273, N′-(3-benzyl-2-oxo-2,3-dihydro-1,3-benzoxazol-6-yl)-N-(5,6-difluoro-1H-indol-3-yl)ethanediamide]
0.2 to 1 | O=C(NCC(=O)c1cccc(C(F)(F)F)c1)C(=O)Nc1c[nH]c2cc(F)c(F)cc12 [Compound 275, N-(5,6-difluoro-1H-indol-3-yl)-N′-{2-oxo-2-[3-(trifluoromethyl)phenyl]ethyl} ethanediamide]
0.2 to 1 | CC(COc1ccc(C(F)(F)F)cc1)NC(=O)C(=O)Nc1c[nH]c2cc(F)c(F)cc12 (stereo not shown) [Compound 276, N-(5,6-difluoro-1H-indol-3-yl)-N′-{1-[4-(trifluoromethyl)phenoxy]propan-2-yl}ethanediamide]
0.2 to 1 | O=C(Nc1c[nH]c2cc(F)c(F)cc12)C(=O)NC1CCC2(CCCC2)C1 (stereo not shown) [Compound 279]
0.2 to 1 | O=C(Nc1c[nH]c2cc(F)c(F)cc12)C(=O)NC1CCC2(CCCCC2)C1 (stereo not shown) [Compound 280]
0.2 to 1 | O=C(Nc1c[nH]c2cc(F)c(F)cc12)C(=O)NC1CCCC2(CCCCC2)C1 (stereo not shown) [Compound 281]
0.2 to 1 | O=C(Nc1c[nH]c2cc(F)c(F)cc12)C(=O)NC1CCC2(CCCCO2)CC1 (stereo not shown) [Compound 282]
0.04 to 0.2 | Cc1ccc(CNC(=O)C(=O)Nc2c[nH]c3ccc(-c4cnn(CC(F)(F)F)c4)cc23)cc1OC(F)(F)F [Compound 285]
0.2 to 1 | N#Cc1cc(NC(=O)C(=O)Nc2c[nH]c3cc(F)c(F)cc23)ccc1N1CCCC1 [Compound 286, N′-[3-cyano-4-(pyrrolidin-1-yl)phenyl]-N-(5,6-difluoro-1H-indol-3-yl)ethanediamide]
0.2 to 1 | CC(NC(=O)C(=O)Nc1c[nH]c2cc(F)c(F)cc12)c1cccc(OC(F)(F)F)c1 (stereo not shown) [Compound 288, N-(5,6-difluoro-1H-indol-3-yl)-N′-{1-[3-(trifluoromethoxy)phenyl]ethyl} ethanediamide]
0.04 to 0.2 | Cc1cc(NC(=O)C(=O)Nc2c[nH]c3cc(F)c(F)cc23)ccc1OC(F)(F)F [Compound 289, N-(5,6-difluoro-1H-indol-3-yl)-N′-[3-methyl-4-(trifluoromethoxy)phenyl] ethanediamide]
0.2 to 1 | C[C@@H](NC(=O)C(=O)Nc1c[nH]c2cc(F)c(F)cc12)c1cccc(C(F)(F)F)c1 [Compound 291, N-(5,6-difluoro-1H-indol-3-yl)-N′-[(1R)-1-[3-(trifluoromethyl)phenyl]ethyl] ethanediamide]
0.2 to 1 | O=C(Nc1ccc2c(c1)OC(F)(F)O2)C(=O)Nc1c[nH]c2cc(F)c(F)cc12 [Compound 292, N-(5,6-difluoro-1H-indol-3-yl)-N′-(2,2-difluoro-2H-1,3-benzodioxol-5-yl)ethanediamide]

From patent US20230021448A1, “COMPOUNDS AND COMPOSITIONS FOR TREATING CONDITIONS ASSOCIATED WITH STING ACTIVITY” (IFM Due, Inc., priority 2019, published 2023)
